Source: patent US9999622B2, “Pyrazolothiazole compound and medicine comprising same” (NIPPON SHINYAKU CO., LTD., priority 2014, dated 2018)

How the values were obtained:
Format in all cases: biochemical
JAK1 = target: T1, JAK1 (Homo sapiens, UniProt P23458); assay: JAK tyrosine kinase inhibitory activity in the presence of 1 mM ATP (ELISA), JAK1
T1 construct: purchased Carna Biosciences, Inc
Summary of the method: (§1)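 ELISA read-out: HRP-labelled anti-phosphotyrosine antibody with TMB, absorbance 450 nm, after 1 h kinase reaction at 30 °C in presence of 1 mM ATP. Kinase diluted to 7.5 nM (JAK1) or 0.75 nM (JAK2/JAK3) in Tris-HCl pH 7.5 buffer with DTT; compounds tested in duplicate.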

JAK2 = target: T2, JAK2 (Homo sapiens, UniProt O60674); assay: JAK tyrosine kinase inhibitory activity in the presence of 1 mM ATP (ELISA), JAK2
T2 construct: purchased Carna Biosciences, Inc
Summary of the method: as §1

JAK3 = target: T3, JAK3 (Homo sapiens, UniProt P52333); assay: JAK tyrosine kinase inhibitory activity in the presence of 1 mM ATP (ELISA), JAK3
T3 construct: purchased Carna Biosciences, Inc
T3 sequence (P52333 1-1124): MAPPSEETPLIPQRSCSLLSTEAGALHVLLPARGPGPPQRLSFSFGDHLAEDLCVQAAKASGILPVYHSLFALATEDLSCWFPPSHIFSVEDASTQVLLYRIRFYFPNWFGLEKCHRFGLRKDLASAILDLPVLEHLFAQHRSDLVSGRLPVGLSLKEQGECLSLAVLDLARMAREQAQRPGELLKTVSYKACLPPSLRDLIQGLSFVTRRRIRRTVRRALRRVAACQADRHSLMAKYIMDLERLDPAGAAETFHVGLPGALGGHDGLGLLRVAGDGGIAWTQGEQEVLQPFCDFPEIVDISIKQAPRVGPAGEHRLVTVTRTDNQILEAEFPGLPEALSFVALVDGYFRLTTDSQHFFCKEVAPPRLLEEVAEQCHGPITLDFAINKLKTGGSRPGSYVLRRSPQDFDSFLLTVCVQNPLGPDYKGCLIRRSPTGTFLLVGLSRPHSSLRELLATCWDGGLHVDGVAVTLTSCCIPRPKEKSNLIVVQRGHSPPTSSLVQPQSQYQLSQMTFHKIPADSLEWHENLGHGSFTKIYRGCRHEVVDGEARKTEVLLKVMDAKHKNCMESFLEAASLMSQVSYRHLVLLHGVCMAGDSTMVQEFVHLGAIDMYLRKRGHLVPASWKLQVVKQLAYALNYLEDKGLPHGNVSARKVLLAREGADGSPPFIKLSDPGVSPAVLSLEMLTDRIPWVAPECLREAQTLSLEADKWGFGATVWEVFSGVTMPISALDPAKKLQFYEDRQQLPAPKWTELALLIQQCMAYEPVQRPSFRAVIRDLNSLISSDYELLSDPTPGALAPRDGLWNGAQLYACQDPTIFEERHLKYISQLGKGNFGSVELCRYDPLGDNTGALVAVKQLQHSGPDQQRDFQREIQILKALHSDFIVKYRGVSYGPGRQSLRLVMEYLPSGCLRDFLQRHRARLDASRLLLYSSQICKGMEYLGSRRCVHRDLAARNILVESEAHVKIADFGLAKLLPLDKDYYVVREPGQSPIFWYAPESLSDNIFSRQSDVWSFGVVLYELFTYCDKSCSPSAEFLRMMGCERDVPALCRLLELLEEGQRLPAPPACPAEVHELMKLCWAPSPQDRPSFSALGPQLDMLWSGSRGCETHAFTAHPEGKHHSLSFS
Summary of the method: as §1

T1 sequence (P23458 whole entry): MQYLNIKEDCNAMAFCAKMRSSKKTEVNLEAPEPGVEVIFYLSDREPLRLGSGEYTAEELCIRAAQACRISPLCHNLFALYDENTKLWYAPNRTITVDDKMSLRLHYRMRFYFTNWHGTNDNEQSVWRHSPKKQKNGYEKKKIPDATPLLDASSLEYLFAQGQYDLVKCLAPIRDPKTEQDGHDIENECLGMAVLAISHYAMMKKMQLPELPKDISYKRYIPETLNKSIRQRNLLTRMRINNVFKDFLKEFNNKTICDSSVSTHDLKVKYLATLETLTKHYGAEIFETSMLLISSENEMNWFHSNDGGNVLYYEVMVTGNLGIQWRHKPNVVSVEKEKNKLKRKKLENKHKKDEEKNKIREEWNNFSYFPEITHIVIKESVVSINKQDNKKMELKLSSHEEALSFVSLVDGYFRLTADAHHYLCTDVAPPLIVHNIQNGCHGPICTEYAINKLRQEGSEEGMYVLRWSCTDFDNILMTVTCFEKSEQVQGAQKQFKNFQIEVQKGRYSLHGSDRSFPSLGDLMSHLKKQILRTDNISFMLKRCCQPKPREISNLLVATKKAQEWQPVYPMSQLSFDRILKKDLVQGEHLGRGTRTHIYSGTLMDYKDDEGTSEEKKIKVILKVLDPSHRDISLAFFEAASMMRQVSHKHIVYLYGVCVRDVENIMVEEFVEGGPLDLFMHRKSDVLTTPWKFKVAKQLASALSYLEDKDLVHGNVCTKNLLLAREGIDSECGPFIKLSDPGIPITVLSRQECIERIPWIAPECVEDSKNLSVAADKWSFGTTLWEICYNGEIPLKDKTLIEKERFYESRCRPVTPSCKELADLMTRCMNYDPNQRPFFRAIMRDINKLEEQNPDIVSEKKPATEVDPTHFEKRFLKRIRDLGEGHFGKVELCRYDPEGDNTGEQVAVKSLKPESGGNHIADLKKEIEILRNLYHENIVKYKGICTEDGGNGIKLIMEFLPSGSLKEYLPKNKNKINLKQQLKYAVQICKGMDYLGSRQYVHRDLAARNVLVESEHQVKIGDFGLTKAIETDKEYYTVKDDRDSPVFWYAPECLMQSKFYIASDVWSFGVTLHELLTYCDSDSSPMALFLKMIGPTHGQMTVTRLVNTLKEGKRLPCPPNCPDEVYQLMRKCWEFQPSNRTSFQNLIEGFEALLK
T2 sequence (O60674 whole entry): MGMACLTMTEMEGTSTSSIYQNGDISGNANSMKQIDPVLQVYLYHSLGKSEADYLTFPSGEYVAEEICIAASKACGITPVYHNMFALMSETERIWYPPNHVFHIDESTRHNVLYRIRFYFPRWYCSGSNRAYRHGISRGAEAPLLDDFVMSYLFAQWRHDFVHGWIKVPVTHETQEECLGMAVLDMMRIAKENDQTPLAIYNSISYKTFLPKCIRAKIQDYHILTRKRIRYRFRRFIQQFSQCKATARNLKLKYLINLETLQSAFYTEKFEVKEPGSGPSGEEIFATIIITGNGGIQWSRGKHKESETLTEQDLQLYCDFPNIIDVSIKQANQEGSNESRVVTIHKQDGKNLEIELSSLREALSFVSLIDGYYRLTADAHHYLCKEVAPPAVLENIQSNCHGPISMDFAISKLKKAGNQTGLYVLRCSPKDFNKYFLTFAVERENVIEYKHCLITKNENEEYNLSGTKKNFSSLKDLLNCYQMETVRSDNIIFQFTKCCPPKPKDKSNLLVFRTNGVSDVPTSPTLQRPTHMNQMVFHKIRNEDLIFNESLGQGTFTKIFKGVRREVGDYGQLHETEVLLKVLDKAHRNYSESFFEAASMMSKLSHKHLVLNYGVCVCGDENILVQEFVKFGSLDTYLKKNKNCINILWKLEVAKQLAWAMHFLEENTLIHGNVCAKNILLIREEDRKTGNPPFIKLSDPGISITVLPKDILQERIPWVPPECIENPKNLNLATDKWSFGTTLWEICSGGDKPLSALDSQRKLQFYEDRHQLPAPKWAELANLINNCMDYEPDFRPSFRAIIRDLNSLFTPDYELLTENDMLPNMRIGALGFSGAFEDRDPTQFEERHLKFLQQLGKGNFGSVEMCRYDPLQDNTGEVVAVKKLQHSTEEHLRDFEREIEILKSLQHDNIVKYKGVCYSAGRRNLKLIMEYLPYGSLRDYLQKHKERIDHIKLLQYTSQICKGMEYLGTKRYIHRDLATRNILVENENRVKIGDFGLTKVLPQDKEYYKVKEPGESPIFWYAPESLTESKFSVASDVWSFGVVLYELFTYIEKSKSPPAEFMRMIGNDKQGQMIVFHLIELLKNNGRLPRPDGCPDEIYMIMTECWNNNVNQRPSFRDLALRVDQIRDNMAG

Compound	IC50 (JAK1)	IC50 (JAK2)	IC50 (JAK3)
COC(=O)NC1CCN(C(=O)c2cc(N[C@H](C)c3ccc(F)cc3)nc(-c3cnn4ccsc34)n2)CC1 [Example 77, Methyl (1-{[6-{[(1R)-1-(4-fluorophenyl)ethyl]amino}-2-(pyrazolo[5,1-b][1,3]thiazol-7-yl)pyrimidin-4-yl]carbonyl}piperidin-4-yl)carbamate]	980 nM	3200 nM	> 10000 nM
O=C(NC1CCN(C(=O)c2cc(NCC3CNC3)nc(-c3cnn4ccsc34)n2)CC1)C1CC1 [Example 78, N-[1-({6-[(Azetidin-3-ylmethyl)amino]-2-(pyrazolo[5,1-b][1,3]thiazol-7-yl)pyrimidin-4-yl}carbonyl)piperidin-4-yl]cyclopropanecarboxamide]	4100 nM	> 10000 nM	> 10000 nM
CC(C)C(=O)NC1CCN(C(=O)c2cc(N[C@H](C)c3ccc(F)cc3)nc(-c3cnn4ccsc34)n2)CC1 [Example 79, N-(1-{[6-{[(1R)-1-(4-Fluorophenyl)ethyl]amino}-2-(pyrazolo[5,1-b][1,3]thiazol-7-yl)pyrimidin-4-yl]carbonyl}piperidin-4-yl)-2-methylpropanamide]	870 nM	3300 nM	> 10000 nM
CC(C)(C)CNc1cc(C(=O)N2CCC(O)CC2)nc(-c2cnn3ccsc23)n1 [Example 94, {6-[(2,2-Dimethylpropyl)amino]-2-(pyrazolo[5,1-b][1,3]thiazol-7-yl)pyrimidin-4-yl}(4-hydroxypiperidin-1-yl)methanone]	1900 nM	2200 nM	5400 nM
C[C@H](Nc1cc(C(=O)N2CCC(NC(=O)OCC(F)F)CC2)nc(-c2cnn3ccsc23)n1)C1CC1 [Example 98, 2,2-Difluoroethyl (l-{[6-{[(1S)-1-cyclopropylethyl]amino}-2-(pyrazolo[5,1-b][1,3]thiazol-7-yl)pyrimidin-4-yl]carbonyl}piperidin-4-yl)carbamate]	37 nM	1400 nM	1400 nM
C[C@H](Nc1cc(C(=O)N2CCC(NC(=O)OCC(F)F)CC2)nc(-c2cnn3ccsc23)n1)C(C)(C)C [Example 99, 2,2-Difluoroethyl (1-{[6 {[(2S) 3,3-dimethylbutan-2-yl]amino}-2-(pyrazolo[5,1-b][1,3]thiazol-7-yl)pyrimidin-4-yl]carbonyl}piperidin-4-yl)carbamate]	19 nM	790 nM	2600 nM
C[C@@H](Nc1cc(C(=O)N2CCC(NC(=O)OC(C)(C)C)CC2)nc(-c2cnn3ccsc23)n1)C(C)(C)C [Example 100, tert-Butyl (1-{[6-{[(2R)-3,3-dimethylbutan-2-yl]amino}-2-(pyrazolo[5,1-b][1,3]thiazol-7-yl)pyrimidin-4-yl]carbonyl}piperidin-4-yl)carbamate]	140 nM	3000 nM	3400 nM
COCCOC(=O)NC1CCN(C(=O)c2cc(NC(C)(C)C)nc(-c3cnn4ccsc34)n2)CC1 [Example 101]	98 nM	1800 nM	3100 nM
C[C@@H](Nc1cc(C(=O)N2CCC(NC(=O)OCCN(C)C)CC2)nc(-c2cnn3ccsc23)n1)C(C)(C)C [Example 102, 2-(Dimethylamino)ethyl (1-{[6-{[(2R)-3,3-dimethylbutan-2-yl]amino}-2-(pyrazolo[5,1-b][1,3]thiazol-7-yl)pyrimidin-4-yl]carbonyl}piperidin-4-yl)carbamate]	24 nM	1300 nM	1700 nM
C[C@@H](Nc1cc(C(=O)N2CCC(NC(=O)OCC(F)(F)F)CC2)nc(-c2cnn3ccsc23)n1)C1CC1 [Example 103, 2,2,2-Trifluoroethyl (1-{[6-{[(1R)-1-cyclopropylethyl]amino}-2-(pyrazolo[5,1-b][1,3]thiazol 7-yl)pyrimidin-4-yl]carbonyl}piperidin-4-yl)carbamate]	140 nM	2400 nM	5900 nM
C[C@@H](Nc1cc(C(=O)N2CCC(NC(=O)OCC(F)(F)F)CC2)nc(-c2cnn3ccsc23)n1)C(C)(C)C [Example 104, 2,2,2-Trifluoroethyl (1-{[6-{[(2R)-3,3-dimethylbutan-2-yl]amino}-2-(pyrazolo[5,1-b][1,3]thiazol-7-yl)pyrimidin-4-yl]carbonyl}piperidin-4-yl)carbamate]	200 nM	3000 nM	3400 nM
CCC(CC)COc1cc(C(=O)N2CCC(NC(=O)C3CC3)CC2)nc(-c2cnn3ccsc23)n1 [Example 107, N-(1-{[6-(2-Ethylbutoxy)-2-(pyrazolo[5,1-b][1,3]thiazol-7-yl)pyrimidin-4-yl]carbonyl}piperidin-4-yl)cyclopropanecarboxamide]	200 nM	3500 nM	1600 nM

Second part, the molecule after the results:

IC50 (JAK1)	IC50 (JAK2)	IC50 (JAK3)	Compound
110 nM	820 nM	2300 nM	CCC(C)(C)Nc1cc(C(=O)N2CCC(NC(=O)OC)CC2)nc(-c2cnn3ccsc23)n1 [Example 80, Methyl [1-({6-[(2-methylbutan-2-yl)amino]-2-(pyrazolo[5,1-b][1,3]thiazol-7-yl)pyrimidin-4-yl}carbonyl)piperidin-4-yl]carbamate]
58 nM	9700 nM	5800 nM	CCCOC(=O)NC1CCN(C(=O)c2cc(NC(C)(C)C)nc(-c3cnn4ccsc34)n2)CC1 [Example 82, Propyl (1-{[6-(tert-butylamino)-2-(pyrazolo[5,1-b][1,3]thiazol-7-yl)pyrimidin-4-yl]carbonyl}piperidin-4-yl)carbamate]
330 nM	2200 nM	2300 nM	CCCOC(=O)NC1CCN(C(=O)c2cc(N[C@H](C)C(C)(C)C)nc(-c3cnn4ccsc34)n2)CC1 [Example 85, Propyl (1-{[6-{[(2R)-3,3-dimethylbutan-2-yl]amino}-2-(pyrazolo[5,1-b][1,3]thiazol-7-yl)pyrimidin-4-yl]carbonyl}piperidin-4-yl)carbamate]
190 nM	1000 nM	4100 nM	COCCOC(=O)NC1CCN(C(=O)c2cc(N[C@H](C)C3CC3)nc(-c3cnn4ccsc34)n2)CC1 [Example 88, 2-Methoxyethyl (1-{[6-{[(1R)-1-cyclopropylethyl]amino}-2-(pyrazolo[5,1-b][1,3]thiazol-7-yl)pyrimidin-4-yl]carbonyl}piperidin-4-yl)carbamate]
620 nM	1200 nM	1800 nM	COCCOC(=O)NC1CCN(C(=O)c2cc(N[C@H](C)C(C)(C)C)nc(-c3cnn4ccsc34)n2)CC1 [Example 90, 2-Methoxyethyl (1-{[6-{[(2R)-3,3-dimethylbutan-2-yl]amino}-2-(pyrazolo[5,1-b][1,3]thiazol-7-yl)pyrimidin-4-yl]carbonyl}piperidin-4-yl)carbamate]
40 nM	1200 nM	1000 nM	COCC(=O)NC1CCN(C(=O)c2cc(N[C@H](C)C(C)(C)C)nc(-c3cnn4ccsc34)n2)CC1 [Example 93, N-(1-{[6-{[(2R)-3,3-Dimethylbutan-2-yl]amino}-2-(pyrazolo[5,1-b][1,3]thiazol-7-yl)pyrimidin-4-yl]carbonyl}piperidin-4-yl)-2-methoxyacetamide]
600 nM	1300 nM	2800 nM	CCC(CC)Nc1cc(C(=O)N2CCC(NC(=O)COC)CC2)nc(-c2cnn3ccsc23)n1 [Example 106, 2-Methoxy-N-(1-{[6-(pentan-3-ylamino)-2-(pyrazolo[5,1-b][1,3]thiazol-7-yl)pyrimidin-4-yl]carbonyl}piperidin-4-yl)acetamide]
200 nM	2500 nM	> 10000 nM	CCC(CC)Oc1cc(C(=O)N2CCC(NC(=O)OC)CC2)nc(-c2cnn3ccsc23)n1 [Example 108, Methyl (1-{[6-(pentan-3-yloxy)-2-(pyrazolo[5,1-b][1,3]thiazol-7-yl)pyrimidin-4-yl]carbonyl}piperidin-4-yl)carbamate]
190 nM	1800 nM	2400 nM	CCC(CC)Nc1cc(C(=O)N2CCC(NC(=O)OC)CC2)nc(-c2cnn3ccsc23)n1 [Example 109, Methyl (1-{[6-(pentan-3-ylamino)-2-(pyrazolo[5,1-b][1,3]thiazol-7-yl)pyrimidin-4-yl]carbonyl}piperidin-4-yl)carbamate]
